BindingDB's records for doi:10.1021/acs.jnatprod.5b00104 (Peking Union Medical College, 2015)

Molecular target: T1, X-box-binding protein 1 (Rattus norvegicus, UniProt Q9R1S4)
T1 sequence (Q9R1S4 whole entry): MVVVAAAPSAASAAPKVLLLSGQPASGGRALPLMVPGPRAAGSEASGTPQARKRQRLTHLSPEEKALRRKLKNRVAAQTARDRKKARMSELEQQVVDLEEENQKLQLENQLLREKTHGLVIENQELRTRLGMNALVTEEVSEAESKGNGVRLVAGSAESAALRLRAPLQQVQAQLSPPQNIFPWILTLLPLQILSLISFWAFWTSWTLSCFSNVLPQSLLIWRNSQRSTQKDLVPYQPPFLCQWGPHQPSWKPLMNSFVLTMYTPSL
Assay: ChEBML_1526682
Text: Transactivation of XBP1 in rat IEC-6 cells after 48 hrs by dual luciferase reporter gene assay

In order of falling EC50:
1. CC(C)[C@@]12CC[C@@](C)(O1)[C@H](O)CC/C(C=O)=C/CC[C@@]1(C)O[C@@H]1C2  1.14 µM
2. C/C1=C\[C@@H](O)C[C@@]2(C)O[C@@H]2C[C@]2(C(C)C)CC[C@@](C)(O2)[C@H](O)CC1=O  0.88 µM
3. C/C1=C\CC[C@@]2(C)O[C@@H]2C[C@]2(C(C)C)CC[C@@](C)(O2)[C@H](O)CC1=O  0.42 µM
4. C/C1=C/C[C@@H](O)[C@@]2(C)CC[C@@](C(C)C)(C[C@@H](O)[C@]3(C)CC[C@H]1O3)O2  0.34 µM
